From patent US12383545B1, “Treatment of migraine” (priority 2018, dated 2025)

Experiments:
[1] = tested on: participants with episodic migraine; assay: Study A: adverse events (safety population); assay type: in vivo, human; details: for Deaths, n (%) / TEAE Constipation, n (%) / TEAE Fatigue, n (%) / TEAE Gastroenteritis, n (%) / TEAE Influenza, n (%) / TEAE Nasopharyngitis, n (%) / TEAE Nausea, n (%) / TEAE Sinus Congestion, n (%) / TEAE Sinusitis, n (%) / TEAE Somnolence, n (%) / TEAE Upper Respiratory Tract Infection, n (%) / TEAE Urinary Tract Infection, n (%): Study A, safety population
Method: Adverse events were reported by participants throughout the trial, and at a 4-week follow-up visit. Adverse event information was collected and documented during each clinic visit. Participants could also report adverse events via telephone call between visits. Causality of each adverse event was determined by the investigator who was blinded to the treatment. In addition, clinical laboratory tests, vital signs, electrocardiograms (ECG), and Columbia-Suicide Severity Rating Scale were evaluated. Based on the potential hepatotoxicity of prior gepants, treatment-emergent elevations in ALT or AST ≥3 times the upper limit of normal, as well as potential Hy's law cases, were evaluated as prespecified adverse events of special interest and were reviewed by an independent panel of liver experts blinded to treatment (see, e.g., Negro A et al., CGRP Receptor Antagonists: an expanding drug class for acute migraine? Expert Opin Investig Drugs 2012; 21:807-18; Messina R et al., CGRP—a target for acute therapy in migraine: Clinical Data. Cephalalgia 2019; 39:420-7).
Safety population included all randomized participants who took at least 1 dose of trial treatment. Participants are only counted once within each category. Percentages are calculated at 100×(n/N), where n is the number of participants within a specific category and N is the number of participants in the safety population for the treatment group. Adverse events are listed in decreasing order based on frequency reported in the overall population.

[2] = tested on: Bilirubin Total; assay: Example 5: postbaseline hepatic laboratory parameter values of clinical interest, Bilirubin Total; assay type: in vivo, human; details: safety population
Excerpt: This study consisted of a 4-week screening and baseline period and a 12-week double-blind treatment period, which was followed by a 4-week safety follow-up period. Total study duration is 20-weeks.
To be randomized, eligible patients had to be 18 to 75 years of age (inclusive), have a history of migraine with or without aura for at least 1 year consistent with a diagnosis according to the International Classification of Headache Disorders criteria, 3rd edition, beta version, have experienced 4 to 14 migraine/probable migraine headache days and <15 headache days in the 28-day baseline period. Patients who had clinically significant hematologic, endocrine, cardiovascular, cerebrovascular, pulmonary, renal, hepatic, gastrointestinal, or neurologic disease were excluded from the study.
A total of 834 patients were randomized to double-blind treatment (ITT population), and 825 patients took at least 1 dose of double-blind IP (safety population). […] The primary efficacy variable was the change from baseline in mean monthly migraine/probable migraine headache days across the 12-week treatment period. The secondary efficacy variables were the change from baseline in mean monthly headache days across the 12-week treatment period, proportion of patients with at least a 50% reduction in mean monthly migraine/probable migraine headache days across the 12-week treatment period, and the change from baseline in mean monthly acute medication use days across the 12-week treatment period.

With `C[C@@H]1[C@H](c2c(F)ccc(F)c2F)C[C@H](NC(=O)c2cnc3c(c2)C[C@@]2(C3)C(=O)Nc3ncccc32)C(=O)N1CC(F)(F)F` [atogepant] the “Deaths, n (%)” value ([1]; 10 mg QD) was “(0.0) %”, the “TEAE Constipation, n (%)” value ([1]; 10 mg QD) was “(7.7) %” and the “TEAE Fatigue, n (%)” value ([1]; 10 mg QD) was “(1.4) %”. The “TEAE Gastroenteritis, n (%)” value ([1]; 10 mg QD) was “(0.9) %”, the “TEAE Influenza, n (%)” value ([1]; 10 mg QD) was “(1.4) %” and the “TEAE Nasopharyngitis, n (%)” value ([1]; 10 mg QD) was “(1.8) %”. The “TEAE Nausea, n (%)” value ([1]; 10 mg QD) was “(5.0) %”, the “TEAE Sinus Congestion, n (%)” value ([1]; 10 mg QD) was “(0.5) %” and the “TEAE Sinusitis, n (%)” value ([1]; 10 mg QD) was “(1.8) %”. For the same compound, the “TEAE Somnolence, n (%)” value ([1]; 10 mg QD) was “(3.2) %”, the “TEAE Upper Respiratory Tract Infection, n (%)” value ([1]; 10 mg QD) was “(4.1) %” and the “TEAE Urinary Tract Infection, n (%)” value ([1]; 10 mg QD) was “(1.4) %”. The “Deaths, n (%)” value ([1]; 30 mg QD) was “(0.0) %”, the “TEAE Constipation, n (%)” value ([1]; 30 mg QD) was “(7.0) %” and the “TEAE Fatigue, n (%)” value ([1]; 30 mg QD) was “(3.1) %”. For the same compound, the “TEAE Gastroenteritis, n (%)” value ([1]; 30 mg QD) was “(2.2) %”, the “TEAE Influenza, n (%)” value ([1]; 30 mg QD) was “(0.9) %” and the “TEAE Nasopharyngitis, n (%)” value ([1]; 30 mg QD) was “(3.5) %”. For the same compound, the “TEAE Nausea, n (%)” value ([1]; 30 mg QD) was “(4.4) %”, the “TEAE Sinus Congestion, n (%)” value ([1]; 30 mg QD) was “(0.9) %” and the “TEAE Sinusitis, n (%)” value ([1]; 30 mg QD) was “(1.3) %”. The “TEAE Somnolence, n (%)” value ([1]; 30 mg QD) was “(1.8) %”, the “TEAE Upper Respiratory Tract Infection, n (%)” value ([1]; 30 mg QD) was “(5.7) %” and the “TEAE Urinary Tract Infection, n (%)” value ([1]; 30 mg QD) was “(3.9) %”. For the same compound, the “Deaths, n (%)” value ([1]; 60 mg QD) was “(0.0) %”, the “TEAE Constipation, n (%)” value ([1]; 60 mg QD) was “(6.9) %” and the “TEAE Fatigue, n (%)” value ([1]; 60 mg QD) was “(3.9) %”. The “TEAE Gastroenteritis, n (%)” value ([1]; 60 mg QD) was “(1.3) %”, the “TEAE Influenza, n (%)” value ([1]; 60 mg QD) was “(2.2) %” and the “TEAE Nasopharyngitis, n (%)” value ([1]; 60 mg QD) was “(3.5) %”. For the same compound, the “TEAE Nausea, n (%)” value ([1]; 60 mg QD) was “(6.1) %”, the “TEAE Sinus Congestion, n (%)” value ([1]; 60 mg QD) was “(1.7) %” and the “TEAE Sinusitis, n (%)” value ([1]; 60 mg QD) was “(2.2) %”. For the same compound, the “TEAE Somnolence, n (%)” value ([1]; 60 mg QD) was “(1.7) %”, the “TEAE Upper Respiratory Tract Infection, n (%)” value ([1]; 60 mg QD) was “(3.9) %” and the “TEAE Urinary Tract Infection, n (%)” value ([1]; 60 mg QD) was “(3.9) %”. For the same compound, the “cases of constipation mild in severity” value ([1]; human, in vivo, 12 weeks) was 71.4%, the “cases of constipation moderate in severity” value ([1]; human, in vivo, 12 weeks) was 26.5% and the “cases of nausea mild in severity” value ([1]; human, in vivo, 12 weeks) was 77.1%. For the same compound, the “cases of nausea moderate in severity” value ([1]; human, in vivo, 12 weeks) was 22.9%, the “frequency of upper respiratory tract infection” value ([1]; human, in vivo, 12 weeks) was 3.9-5.7% and the “Participants with postbaseline Bilirubin Total (umol/L) >=1 * ULN, (%)” value (from here on “Participants … (umol/L) >=1 * ULN, (%)”) ([2]; Atogepant 10 mg QD (N = 93)) was “(3.3) %”. The “Participants with postbaseline Bilirubin Total (umol/L) >=1 * ULN, n/N1” value (“Participants … (umol/L) >=1 * ULN, n/N1” for short) ([2]; Atogepant 10 mg QD (N = 93)) was 3/92, the “Participants with postbaseline Bilirubin Total (umol/L) >=1.5 * ULN, (%)” value (from here on “Participants … (umol/L) >=1.5 * ULN, (%)”) ([2]; Atogepant 10 mg QD (N = 93)) was “(1.1) %” and the “Participants with postbaseline Bilirubin Total (umol/L) >=1.5 * ULN, n/N1” value (“Participants … (umol/L) >=1.5 * ULN, n/N1” below) ([2]; Atogepant 10 mg QD (N = 93)) was 1/92. For the same compound, the “Participants with postbaseline Bilirubin Total (umol/L) >=2 * ULN, n/N1” value (shortened to “Participants … (umol/L) >=2 * ULN, n/N1”) ([2]; Atogepant 10 mg QD (N = 93)) was 0, the “Participants with postbaseline Bilirubin Total (umol/L) >=3 * ULN, n/N1” value (shortened to “Participants … (umol/L) >=3 * ULN, n/N1”) ([2]; Atogepant 10 mg QD (N = 93)) was 0 and the “Participants with postbaseline Bilirubin Total (umol/L) >=5 * ULN, n/N1” value (shortened to “Participants … (umol/L) >=5 * ULN, n/N1”) ([2]; Atogepant 10 mg QD (N = 93)) was 0. For the same compound, the “Participants with postbaseline Bilirubin Total (umol/L) >=10 * ULN, n/N1” value (shortened to “Participants … (umol/L) >=10 * ULN, n/N1”) ([2]; Atogepant 10 mg QD (N = 93)) was 0, the “Participants with postbaseline Bilirubin Total (umol/L) >=20 * ULN, n/N1” value (“Participants … (umol/L) >=20 * ULN, n/N1” below) ([2]; Atogepant 10 mg QD (N = 93)) was 0 and the “Participants … (umol/L) >=1 * ULN, (%)” value ([2]; Atogepant 30 mg BID (N = 86)) was “(3.6) %”. The “Participants … (umol/L) >=1 * ULN, n/N1” value ([2]; Atogepant 30 mg BID (N = 86)) was 3/84, the “Participants … (umol/L) >=1.5 * ULN, (%)” value ([2]; Atogepant 30 mg BID (N = 86)) was “(1.2) %” and the “Participants … (umol/L) >=1.5 * ULN, n/N1” value ([2]; Atogepant 30 mg BID (N = 86)) was 1/84. The “Participants … (umol/L) >=2 * ULN, n/N1” value ([2]; Atogepant 30 mg BID (N = 86)) was 0, the “Participants … (umol/L) >=3 * ULN, n/N1” value ([2]; Atogepant 30 mg BID (N = 86)) was 0 and the “Participants … (umol/L) >=5 * ULN, n/N1” value ([2]; Atogepant 30 mg BID (N = 86)) was 0. For the same compound, the “Participants … (umol/L) >=10 * ULN, n/N1” value ([2]; Atogepant 30 mg BID (N = 86)) was 0, the “Participants … (umol/L) >=20 * ULN, n/N1” value ([2]; Atogepant 30 mg BID (N = 86)) was 0 and the “Participants … (umol/L) >=1 * ULN, (%)” value ([2]; Atogepant 30 mg QD (N = 183)) was “(8.4) %”. For the same compound, the “Participants … (umol/L) >=1 * ULN, n/N1” value ([2]; Atogepant 30 mg QD (N = 183)) was 15/179, the “Participants … (umol/L) >=1.5 * ULN, (%)” value ([2]; Atogepant 30 mg QD (N = 183)) was “(1.1) %” and the “Participants … (umol/L) >=1.5 * ULN, n/N1” value ([2]; Atogepant 30 mg QD (N = 183)) was 2/179. The “Participants … (umol/L) >=2 * ULN, n/N1” value ([2]; Atogepant 30 mg QD (N = 183)) was 0, the “Participants … (umol/L) >=3 * ULN, n/N1” value ([2]; Atogepant 30 mg QD (N = 183)) was 0 and the “Participants … (umol/L) >=5 * ULN, n/N1” value ([2]; Atogepant 30 mg QD (N = 183)) was 0. For the same compound, the “Participants … (umol/L) >=10 * ULN, n/N1” value ([2]; Atogepant 30 mg QD (N = 183)) was 0, the “Participants … (umol/L) >=20 * ULN, n/N1” value ([2]; Atogepant 30 mg QD (N = 183)) was 0 and the “Participants … (umol/L) >=1 * ULN, (%)” value ([2]; Atogepant 60 mg BID (N = 91)) was “(1.1) %”. The “Participants … (umol/L) >=1 * ULN, n/N1” value ([2]; Atogepant 60 mg BID (N = 91)) was 1/88, the “Participants … (umol/L) >=1.5 * ULN, n/N1” value ([2]; Atogepant 60 mg BID (N = 91)) was 0 and the “Participants … (umol/L) >=2 * ULN, n/N1” value ([2]; Atogepant 60 mg BID (N = 91)) was 0. For the same compound, the “Participants … (umol/L) >=3 * ULN, n/N1” value ([2]; Atogepant 60 mg BID (N = 91)) was 0, the “Participants … (umol/L) >=5 * ULN, n/N1” value ([2]; Atogepant 60 mg BID (N = 91)) was 0 and the “Participants … (umol/L) >=10 * ULN, n/N1” value ([2]; Atogepant 60 mg BID (N = 91)) was 0. For the same compound, the “Participants … (umol/L) >=20 * ULN, n/N1” value ([2]; Atogepant 60 mg BID (N = 91)) was 0, the “Participants … (umol/L) >=1 * ULN, (%)” value ([2]; Atogepant 60 mg QD (N = 186)) was “(4.4) %” and the “Participants … (umol/L) >=1 * ULN, n/N1” value ([2]; Atogepant 60 mg QD (N = 186)) was 8/181. For the same compound, the “Participants … (umol/L) >=1.5 * ULN, (%)” value ([2]; Atogepant 60 mg QD (N = 186)) was “(1.1) %”, the “Participants … (umol/L) >=1.5 * ULN, n/N1” value ([2]; Atogepant 60 mg QD (N = 186)) was 2/181 and the “Participants … (umol/L) >=2 * ULN, n/N1” value ([2]; Atogepant 60 mg QD (N = 186)) was 0. For the same compound, the “Participants … (umol/L) >=3 * ULN, n/N1” value ([2]; Atogepant 60 mg QD (N = 186)) was 0, the “Participants … (umol/L) >=5 * ULN, n/N1” value ([2]; Atogepant 60 mg QD (N = 186)) was 0 and the “Participants … (umol/L) >=10 * ULN, n/N1” value ([2]; Atogepant 60 mg QD (N = 186)) was 0. For the same compound, the “Participants … (umol/L) >=20 * ULN, n/N1” value ([2]; Atogepant 60 mg QD (N = 186)) was 0.
